According to BindingDB's records for doi:10.1124/jpet.105.097006 (Acadia Pharmaceuticals, 2006):

Legend:
[1] = target: T1, 5-hydroxytryptamine receptor 2C (Homo sapiens, UniProt P28335); assay: Receptor Selection and Amplification Technology
T1 sequence (P28335 whole entry): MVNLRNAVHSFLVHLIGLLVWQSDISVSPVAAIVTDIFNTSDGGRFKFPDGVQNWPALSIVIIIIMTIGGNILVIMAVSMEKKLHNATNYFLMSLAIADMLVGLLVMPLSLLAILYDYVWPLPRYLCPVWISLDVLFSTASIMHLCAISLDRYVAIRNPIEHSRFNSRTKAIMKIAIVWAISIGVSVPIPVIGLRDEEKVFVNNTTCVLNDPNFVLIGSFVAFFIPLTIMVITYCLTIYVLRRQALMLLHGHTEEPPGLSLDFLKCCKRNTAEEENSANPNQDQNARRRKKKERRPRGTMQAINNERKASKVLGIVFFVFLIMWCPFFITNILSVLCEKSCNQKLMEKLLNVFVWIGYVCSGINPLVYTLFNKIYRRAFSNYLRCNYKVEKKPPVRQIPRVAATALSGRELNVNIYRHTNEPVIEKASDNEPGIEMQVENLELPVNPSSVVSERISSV

[2] = target: 5-hydroxytryptamine receptor 2B (Homo sapiens, UniProt P41595); assay: Receptor Selection and Amplification Technology
Chain of 5-hydroxytryptamine receptor 2B (P41595 whole entry): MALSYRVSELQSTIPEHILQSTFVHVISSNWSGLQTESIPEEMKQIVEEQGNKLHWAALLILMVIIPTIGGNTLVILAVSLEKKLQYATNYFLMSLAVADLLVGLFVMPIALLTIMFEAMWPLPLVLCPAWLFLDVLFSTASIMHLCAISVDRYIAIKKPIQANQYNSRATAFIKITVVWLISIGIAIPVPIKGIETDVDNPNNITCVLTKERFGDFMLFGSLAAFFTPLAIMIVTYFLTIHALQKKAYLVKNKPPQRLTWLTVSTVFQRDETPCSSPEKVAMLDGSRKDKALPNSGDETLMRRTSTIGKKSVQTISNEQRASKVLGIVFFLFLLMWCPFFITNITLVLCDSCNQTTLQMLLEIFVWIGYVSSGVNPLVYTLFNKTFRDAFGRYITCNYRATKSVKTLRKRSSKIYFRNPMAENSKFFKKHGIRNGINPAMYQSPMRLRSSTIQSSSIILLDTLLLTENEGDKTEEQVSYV

[3] = target: T1, 5-hydroxytryptamine receptor 2C; assay: Radioligand Binding Assay; conditions: 4 °C
Method: (§1) For the membrane binding, NIH-3T3 cells were grown to 70% confluence in 15-cm2 dishes and transfected with 10 ug of receptor plasmid DNA using Polyfect transfection reagent (QIAGEN, Valencia, CA) according to manufacturer s protocols. Two days after transfection, cells expressing the desired serotonin receptor were homogenized in 20 mM HEPES/10 mM EDTA and spun down at 11,000g at 4 C for 30 min. The supernatant was discarded, and the pellet was resuspended in 20 mM HEPES/1 mM EDTA and spun down at the same setting. The pellet was then resuspended in 20 mM HEPES/0.5 mM EDTA, and membranes were used for binding assays. Bradford analysis was used to determine total membrane protein.

[4] = target: T2, 5-hydroxytryptamine receptor 2A (Homo sapiens, UniProt P28223); assay: Receptor Selection and Amplification Technology
T2 sequence (P28223 whole entry): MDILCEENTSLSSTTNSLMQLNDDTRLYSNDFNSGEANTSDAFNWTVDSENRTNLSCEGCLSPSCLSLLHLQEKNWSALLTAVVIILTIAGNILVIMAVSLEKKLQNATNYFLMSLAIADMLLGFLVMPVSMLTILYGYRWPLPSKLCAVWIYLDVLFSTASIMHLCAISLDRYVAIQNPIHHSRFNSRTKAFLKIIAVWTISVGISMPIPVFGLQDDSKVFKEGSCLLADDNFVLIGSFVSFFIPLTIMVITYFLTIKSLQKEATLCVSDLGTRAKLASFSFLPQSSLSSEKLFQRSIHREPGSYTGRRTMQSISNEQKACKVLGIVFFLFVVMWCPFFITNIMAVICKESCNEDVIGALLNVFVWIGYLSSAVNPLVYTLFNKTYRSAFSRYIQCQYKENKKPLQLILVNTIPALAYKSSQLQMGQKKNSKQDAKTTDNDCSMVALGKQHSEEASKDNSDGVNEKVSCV

[5] = target: T2, 5-hydroxytryptamine receptor 2A; assay: Radioligand Binding Assay; conditions: 4 °C
Method: as §1

Row | IC50 [4] [nM] | Ki [5] [nM] | Compound | IC50 [1] [nM] | IC50 [2] [nM] | Ki [3] [nM]
1 |  |  | Cc1nc2sccn2c(=O)c1CCN1CCC(=C(c2ccc(F)cc2)c2ccc(F)cc2)CC1 | 4.5 | 3 | 0.44
2 | 1 | 0.046 | CN(C)CCON/C(=C/C=C1C=CC(=O)C=C1)c1ccccc1F [eplivanserin] |  |  | 1.3
